Experimental data from ChEMBL document CHEMBL3885881, “DrugMatrix”.

Organism: Rattus norvegicus
Assay: DrugMatrix - Regimen: Daily Repeat
Format: toxicity, organism-based, Sprague-Dawley
Parameters: regimen Daily Repeat, gender Male, age 6-8 weeks
Conditions: in vivo, po, route oral GAVAGE, vehicle .5 % CMC; for ABSOLUTE BASOPHIL / ABSOLUTE EOSINOPHIL / ABSOLUTE LYMPHOCYTE / ABSOLUTE MONOCYTE / ABSOLUTE SEGMENTED NEUTROPHIL / BASOPHIL / EOSINOPHIL / ERYTHROCYTE COUNT / HEMATOCRIT / HEMOGLOBIN / LEUKOCYTE COUNT / LYMPHOCYTE / MEAN CORPUSCULAR HEMOGLOBIN / MEAN CORPUSCULAR HEMOGLOBIN CONCENTRATION / MEAN CORPUSCULAR VOLUME / MONOCYTE / NEUTROPHIL / NUCLEATED RED BLOOD CELLS / PLATELET COUNT: tissue Blood; for ALANINE AMINOTRANSFERASE / ALBUMIN / ALKALINE PHOSPHATASE / ASPARTATE AMINOTRANSFERASE / BLOOD UREA NITROGEN / CARBON DIOXIDE / CHLORIDE / CHOLESTEROL / CREATINE PHOSPHOKINASE / CREATININE / GLUCOSE / LACTATE DEHYDROGENASE / LIPASE / PHOSPHORUS / POTASSIUM / SODIUM / TOTAL BILIRUBIN / TOTAL PROTEIN / URIC ACID: tissue Plasma
[1] = 0 mg/kg, 72 h, dose level Control, time 3 day
[2] = 0 mg/kg, 120 h, dose level Control, time 5 day
[3] = 50 mg/kg, 72 h, dose level Low, time 3 day

CN(C)[C@@H]1C(O)=C(C(N)=O)C(=O)[C@@]2(O)C(O)=C3C(=O)c4c(O)ccc(Cl)c4[C@@](C)(O)[C@H]3C[C@@H]12 [CHLORTETRACYCLINE]
ABSOLUTE BASOPHIL [1]: 0 CELLS/uL | ABSOLUTE EOSINOPHIL [1]: 32.5 CELLS/uL | ABSOLUTE LYMPHOCYTE [1]: 13494.17 CELLS/uL | ABSOLUTE MONOCYTE [1]: 474 CELLS/uL | ABSOLUTE SEGMENTED NEUTROPHIL [1]: 1932.67 CELLS/uL | BASOPHIL [1]: 0% | EOSINOPHIL [1]: 0.17% | ERYTHROCYTE COUNT [1]: 5.45 x10E6/uL | HEMATOCRIT [1]: 34.32% | HEMOGLOBIN [1]: 13.82 G/DL | LEUKOCYTE COUNT [1]: 15.93 x10E3/uL | LYMPHOCYTE [1]: 84.83% | MEAN CORPUSCULAR HEMOGLOBIN [1]: 25.38 pg | MEAN CORPUSCULAR HEMOGLOBIN CONCENTRATION [1]: 40.27 G/DL | MEAN CORPUSCULAR VOLUME [1]: 63.05 fL | MONOCYTE [1]: 3% | NEUTROPHIL [1]: 12% | NUCLEATED RED BLOOD CELLS [1]: 0.67 /100WBC | PLATELET COUNT [1]: 1188.5 x10E3/uL | ALANINE AMINOTRANSFERASE [1]: 54.83 u/L | ALBUMIN [1]: 4.22 G/DL | ALKALINE PHOSPHATASE [1]: 427.67 u/L | ASPARTATE AMINOTRANSFERASE [1]: 86.5 u/L | BLOOD UREA NITROGEN [1]: 15.33 mg/dL | CARBON DIOXIDE [1]: 24.83 mmol/L | CHLORIDE [1]: 102.33 MEQ/L | CHOLESTEROL [1]: 71.67 mg/dL | CREATINE PHOSPHOKINASE [1]: 442.5 u/L | CREATININE [1]: 0.19 mg/dL | GLUCOSE [1]: 160.67 mg/dL | LACTATE DEHYDROGENASE [1]: 236.5 u/L | LIPASE [1]: 9 u/L | PHOSPHORUS [1]: 11.97 mg/dL | POTASSIUM [1]: 6.2 MEQ/L | SODIUM [1]: 142.85 MEQ/L | TOTAL BILIRUBIN [1]: 0.2 mg/dL | TOTAL PROTEIN [1]: 5.8 G/DL | URIC ACID [1]: 1.3 mg/dL | ABSOLUTE BASOPHIL [2]: 0 CELLS/uL | ABSOLUTE EOSINOPHIL [2]: 114.5 CELLS/uL | ABSOLUTE LYMPHOCYTE [2]: 14614 CELLS/uL | ABSOLUTE MONOCYTE [2]: 173 CELLS/uL | ABSOLUTE SEGMENTED NEUTROPHIL [2]: 1048.5 CELLS/uL | BASOPHIL [2]: 0% | EOSINOPHIL [2]: 0.67% | ERYTHROCYTE COUNT [2]: 5.66 x10E6/uL | HEMATOCRIT [2]: 35.52% | HEMOGLOBIN [2]: 14.27 G/DL | LEUKOCYTE COUNT [2]: 15.95 x10E3/uL | LYMPHOCYTE [2]: 91.33% | MEAN CORPUSCULAR HEMOGLOBIN [2]: 25.23 pg | MEAN CORPUSCULAR HEMOGLOBIN CONCENTRATION [2]: 40.2 G/DL | MEAN CORPUSCULAR VOLUME [2]: 62.7 fL | MONOCYTE [2]: 1.17% | NEUTROPHIL [2]: 6.83% | NUCLEATED RED BLOOD CELLS [2]: 0.33 /100WBC | PLATELET COUNT [2]: 1229 x10E3/uL | ALANINE AMINOTRANSFERASE [2]: 58.67 u/L | ALBUMIN [2]: 4.32 G/DL | ALKALINE PHOSPHATASE [2]: 382.5 u/L | ASPARTATE AMINOTRANSFERASE [2]: 81.67 u/L | BLOOD UREA NITROGEN [2]: 17.67 mg/dL | CARBON DIOXIDE [2]: 27.17 mmol/L | CHLORIDE [2]: 102.33 MEQ/L | CHOLESTEROL [2]: 63.67 mg/dL | CREATINE PHOSPHOKINASE [2]: 227.67 u/L | CREATININE [2]: 0.23 mg/dL | GLUCOSE [2]: 155.33 mg/dL | LACTATE DEHYDROGENASE [2]: 146.5 u/L | LIPASE [2]: 10.67 u/L | PHOSPHORUS [2]: 11.93 mg/dL | POTASSIUM [2]: 6.85 MEQ/L | SODIUM [2]: 143.95 MEQ/L | TOTAL BILIRUBIN [2]: 0.18 mg/dL | TOTAL PROTEIN [2]: 6.02 G/DL | URIC ACID [2]: 1.63 mg/dL | ABSOLUTE BASOPHIL [3]: 0 CELLS/uL | ABSOLUTE EOSINOPHIL [3]: 126.67 CELLS/uL | ABSOLUTE LYMPHOCYTE [3]: 10511.33 CELLS/uL | ABSOLUTE MONOCYTE [3]: 344.33 CELLS/uL | ABSOLUTE SEGMENTED NEUTROPHIL [3]: 817.67 CELLS/uL | BASOPHIL [3]: 0% | EOSINOPHIL [3]: 1% | ERYTHROCYTE COUNT [3]: 5.49 x10E6/uL | HEMATOCRIT [3]: 34.47% | HEMOGLOBIN [3]: 13.47 G/DL | LEUKOCYTE COUNT [3]: 11.8 x10E3/uL | LYMPHOCYTE [3]: 89% | MEAN CORPUSCULAR HEMOGLOBIN [3]: 24.57 pg | MEAN CORPUSCULAR HEMOGLOBIN CONCENTRATION [3]: 39.13 G/DL | MEAN CORPUSCULAR VOLUME [3]: 62.87 fL | MONOCYTE [3]: 3% | NEUTROPHIL [3]: 7% | NUCLEATED RED BLOOD CELLS [3]: 0 /100WBC | PLATELET COUNT [3]: 1083.33 x10E3/uL | ALANINE AMINOTRANSFERASE [3]: 50.33 u/L | ALBUMIN [3]: 4.07 G/DL | ALKALINE PHOSPHATASE [3]: 403.67 u/L | ASPARTATE AMINOTRANSFERASE [3]: 84.67 u/L | BLOOD UREA NITROGEN [3]: 16.67 mg/dL | CARBON DIOXIDE [3]: 26 mmol/L | CHLORIDE [3]: 103.67 MEQ/L | CHOLESTEROL [3]: 73.33 mg/dL | CREATINE PHOSPHOKINASE [3]: 273.67 u/L | CREATININE [3]: 0.15 mg/dL | GLUCOSE [3]: 157.67 mg/dL | LACTATE DEHYDROGENASE [3]: 157.33 u/L | LIPASE [3]: 9.33 u/L | PHOSPHORUS [3]: 12.13 mg/dL | POTASSIUM [3]: 6.6 MEQ/L | SODIUM [3]: 146.1 MEQ/L | TOTAL BILIRUBIN [3]: 0.2 mg/dL | TOTAL PROTEIN [3]: 5.67 G/DL | URIC ACID [3]: 1.77 mg/dL
